# Results as given in ChEMBL document CHEMBL1201862, “PubChem BioAssay data set” (2004).
#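 Growth conditions: 96-well plates. Treatment: test compound, 48 hours, 5 concentrations. Analysis: linear interpolation between bracketing concentrations; unreached endpoints set to highest concentration. GI50 marks 50% less growth.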 Activity calls are given as the source filed them. Rule as the data show it: active = GI50 up to about 1.1 µM and inactive = higher.
# Experiments:
# Assay in all cases: growth of human tumour cells (NCI), 48 h
# 786-0 = test system: 786-0
# A549 = test system: A549
# ACHN = test system: ACHN
# BT-549 = test system: BT-549
# CAKI-1 = test system: CAKI-1
# COLO 205 = test system: COLO 205
# DU-145 = test system: DU-145
# EKVX = test system: EKVX
# HCC 2998 = test system: HCC 2998
# HCT-116 = test system: HCT-116
# HCT-15 = test system: HCT-15
# HOP-62 = test system: HOP-62
# Hs-578T = test system: Hs-578T
# IGROV-1 = test system: IGROV-1
# KM12 = test system: KM12
# LOX IMVI = test system: LOX IMVI
# M14 = test system: M14
# MCF7 = test system: MCF7
# MDA-MB-231 = test system: MDA-MB-231
# MDA-N = test system: MDA-N
# Malme-3M = test system: Malme-3M
# NCI-H226 = test system: NCI-H226
# NCI-H23 = test system: NCI-H23
# NCI-H460 = test system: NCI-H460
# NCI-H522 = test system: NCI-H522
# NCI/ADR-RES = test system: NCI/ADR-RES
# OVCAR-3 = test system: OVCAR-3
# OVCAR-5 = test system: OVCAR-5
# OVCAR-8 = test system: OVCAR-8
# PC-3 = test system: PC-3
# RXF 393 = test system: RXF 393
# SF-268 = test system: SF-268
# SF-295 = test system: SF-295
# SF-539 = test system: SF-539
# SK-MEL-5 = test system: SK-MEL-5
# SK-OV-3 = test system: SK-OV-3
# SNB-19 = test system: SNB-19
# SNB-75 = test system: SNB-75
# TK-10 = test system: TK-10
# UACC-257 = test system: UACC-257
# UACC-62 = test system: UACC-62
# UO-31 = test system: UO-31
# CCRF-CEM = test system: CCRF-CEM
# HL-60 = test system: HL-60
# K562 = test system: K562
# MDA-MB-435 = test system: MDA-MB-435
# MOLT-4 = test system: MOLT-4
# OVCAR-4 = test system: OVCAR-4
# SK-MEL-28 = test system: SK-MEL-28
# SK-MEL-2 = test system: SK-MEL-2
# SN12C = test system: SN12C
# SR = test system: SR
# SW-620 = test system: SW-620
# U-251 = test system: U-251
structure (smiles),measurement,setting,value
C1=NN2C(c3ccccc3)=NOC2C2C(c3ccccc3)=NOC12 (stereo not given),GI50,786-0,> 100 µM (inactive)
same,GI50,A549,> 100 µM (inactive)
same,GI50,ACHN,98.6 µM (inactive)
same,GI50,BT-549,> 100 µM (inactive)
same,GI50,CAKI-1,> 100 µM (inactive)
same,GI50,COLO 205,> 100 µM (inactive)
same,GI50,DU-145,> 100 µM (inactive)
same,GI50,EKVX,> 100 µM (inactive)
same,GI50,HCC 2998,> 100 µM (inactive)
same,GI50,HCT-116,> 100 µM (inactive)
same,GI50,HCT-15,> 100 µM
same,GI50,HOP-62,> 100 µM (inactive)
same,GI50,Hs-578T,> 100 µM (inactive)
same,GI50,IGROV-1,> 100 µM (inactive)
same,GI50,KM12,> 100 µM (inactive)
same,GI50,LOX IMVI,> 100 µM (inactive)
same,GI50,M14,> 100 µM (inactive)
same,GI50,MCF7,> 100 µM (inactive)
same,GI50,MDA-MB-231,> 100 µM (inactive)
same,GI50,MDA-N,> 100 µM (inactive)
same,GI50,Malme-3M,> 100 µM (inactive)
same,GI50,NCI-H226,96.2 µM (inactive)
same,GI50,NCI-H23,> 100 µM (inactive)
same,GI50,NCI-H460,> 100 µM (inactive)
same,GI50,NCI-H522,42.9 µM (inactive)
same,GI50,NCI/ADR-RES,97.9 µM (inactive)
same,GI50,OVCAR-3,> 100 µM (inactive)
same,GI50,OVCAR-5,> 100 µM (inactive)
same,GI50,OVCAR-8,> 100 µM (inactive)
same,GI50,PC-3,> 100 µM (inactive)
same,GI50,RXF 393,> 100 µM (inactive)
same,GI50,SF-268,> 100 µM (inactive)
same,GI50,SF-295,> 100 µM (inactive)
same,GI50,SF-539,> 100 µM (inactive)
same,GI50,SK-MEL-5,58.7 µM (inactive)
same,GI50,SK-OV-3,> 100 µM (inactive)
same,GI50,SNB-19,> 100 µM (inactive)
same,GI50,SNB-75,> 100 µM (inactive)
same,GI50,TK-10,> 100 µM (inactive)
same,GI50,UACC-257,> 100 µM (inactive)
same,GI50,UACC-62,> 100 µM (inactive)
same,GI50,UO-31,> 100 µM (inactive)
C/C=C1\NC(=O)[C@H](Cc2ccccc2)NC(=O)[C@@H](C(C)C)NC(=O)[C@@H]([C@@H](C)CC)NC(=O)[C@H](NC(=O)[C@H](NC(=O)[C@H](CCCN)NC(=O)[C@H]2CCCN2C(=O)[C@H](NC(=O)[C@@H](NC(=O)[C@@H](NC(=O)[C@H](NC(=O)CCCC(C)C)C(C)C)[C@@H](C)O)C(C)C)C(C)C)[C@@H](C)CC)[C@@H](C)OC(=O)[C@H](C(C)C)NC1=O,GI50,786-0,1.74 µM (inactive)
same,GI50,BT-549,3.44 µM (inactive)
same,GI50,CCRF-CEM,2.86 µM (inactive)
same,GI50,EKVX,0.265 µM (active)
same,GI50,HL-60,39.4 µM (inactive)
same,GI50,HOP-62,1.76 µM (inactive)
same,GI50,IGROV-1,1.44 µM (inactive)
same,GI50,K562,3.59 µM (inactive)
same,GI50,LOX IMVI,3.64 µM (inactive)
same,GI50,M14,1.38 µM (inactive)
same,GI50,MCF7,0.461 µM (active)
same,GI50,MDA-MB-435,1.14 µM (inactive)
same,GI50,MOLT-4,12.1 µM (inactive)
same,GI50,Malme-3M,2 µM (inactive)
same,GI50,NCI-H226,2.23 µM (inactive)
same,GI50,NCI-H23,4.2 µM (inactive)
same,GI50,NCI-H460,1.52 µM (inactive)
same,GI50,NCI-H522,3.71 µM (inactive)
same,GI50,NCI/ADR-RES,3.04 µM (inactive)
same,GI50,OVCAR-3,1.36 µM (inactive)
same,GI50,OVCAR-4,0.863 µM (active)
same,GI50,OVCAR-5,1.63 µM (inactive)
same,GI50,OVCAR-8,4.63 µM (inactive)
same,GI50,RXF 393,3.1 µM (inactive)
same,GI50,SF-268,1.42 µM (inactive)
same,GI50,SF-295,1.69 µM (inactive)
same,GI50,SF-539,1.69 µM (inactive)
same,GI50,SK-MEL-28,1.5 µM (inactive)
same,GI50,SK-MEL-2,2.31 µM (inactive)
same,GI50,SK-MEL-5,0.456 µM (active)
same,GI50,SN12C,2.64 µM (inactive)
same,GI50,SNB-19,0.347 µM (active)
same,GI50,SR,14.4 µM (inactive)
same,GI50,SW-620,0.344 µM (active)
same,GI50,TK-10,1.85 µM (inactive)
same,GI50,U-251,0.344 µM (active)
same,GI50,UACC-62,1.42 µM (inactive)
same,GI50,UO-31,2.1 µM (inactive)
